From US20170029454A1, “NKT CELL LIGANDS AND METHODS OF USE” (THE SCRIPPS RESEARCH INSTITUTE, priority 2013, published 2017)
Like-named read-outs stand apart in the source and are kept apart here.

Assays:
DN32.D3 NKT cells = test: T cell activation assay (IL-2 production) with Vα14 NKT hybridoma DN32.D3; type: cell-based; details: for effect on stimulation of NKT cells, FIG. 10 legend: DC3.2 cells treated with recombinant TNFα (legend FIG. 10); for effect on stimulation of NKT cells in the context of TNFα stimulation: DC3.2 cells, TNFα stimulation (FIG. 11); for effect on stimulation of NKT cells by DCs: non-differentiated and LPS-treated DC3.2 cells, 1-deoxygalactonojirimycin 0.5 μM, 1-deoxygluconojirimycin 2.0 μM; for effect of ceramidase inhibition on stimulatory activity towards NKT cells: untreated or LPS-treated DC3.2 cells, 24 h
Description: T cell hybridoma cells were cultured in RPMI supplemented with 10% FCS, 2 mM L-glutamine, 20 mM HEPES, and non-essential amino acids. Antigen presentation assays were carried out using 5-20×10^3 DC 3.2 cells or 1×10^5 splenocytes and 4×10^4 T cells per well in 96 well tissue culture plates in triplicates. Cell culture supernatants were collected 24 h later for determination of IL-2 concentrations using an IL-2-dependent NK cell line reporter system. NKT cells have a memory phenotype and hallmarks of “pre-activation” when analyzed ex vivo. In vitro they have been described as being highly autoreactive by their propensity at being activated by syngeneic target cells expressing CD1d molecules (Bendelac et al. 2007, Annual Rev. Immuno., 25:297; Park et al., 1998, J. Immunol., 160:3128). This phenomenon can be illustrated by the activation of Vα14 NKT hybridoma cell DN32.D3 against RBL-CD1, a CD1d positive cell line, that have been stimulated by […] ligands. Stimulation of DN32.D3 cells and TBA.7 cells, a non-Vα14 NKT cell hybridoma, was tested against RBL-CD1 or RBL-CD1 SAP^-/- in which […] expression was knocked down by interfering RNAs. The hybridoma cells were cultured in RPMI supplemented with 10% FCS, 2 mM L-glutamine, 20 mM HEPES, and non-essential amino acids. Antigen presentation assays were carried out using 5-20×10^3 DC 3.2 cells or 1×10^5 splenocytes and 4×10^4 T cells per well in 96-well tissue culture plates in triplicates. Cell culture supernatants were collected 24 h later for determination of IL-2 concentrations using an IL-2-dependent NK cell line reporter system. […] The results are shown in FIGS. 14A-E. A control (open circles) was included for comparison with each inhibitor (filled circles).

L363 antibody = test: Surface plasmon resonance: binding of immobilized L363 antibody to CD1d-lipid complexes; details: for Kdiss (L363 binding to CD1d-lipid complex) / Kd / Affinity Kd (Kdiss/Kass): lipid loaded on mCD1d, single cycle SPR, Biacore T200; for Kd: read-out: Affinity Kd (Kdiss/Kass); for binding of L363 to lipid loaded into CD1d: SPR
Description: Single cycle analysis was performed on CM5 chips using 250-1000 RUs of immobilized antibody and increasing concentrations of CD1-lipid complexes.
(§1) A Biacore T200 instrument (GE Healthcare, Pittsburgh, Pa.) was used for SPR measurements. Measurements were performed using single cycle protocols to avoid repeated use of regeneration buffer on the immobilized ligands. Immobilization of target antibodies was carried out using classical amine coupling chemistry. 250 to 1,000 RU of antibody was immobilized in each flow cell. All mCD1-lipid complexes were purified after loading to ensure maximal homogeneity and avoid the presence of small amounts of aggregated material. Concentrations ranging from […] were used for each CD1-lipid complex. Flow cell one was used as a negative control and used for subtraction from experimental flow cells. Global analysis of subtracted sensorgrams was carried out using the T200 analysis software.
as §1, with “(available from GE” for “(GE”, “cells (L363 antibody—control antibody).” for “cells.”

DC3.2 cells = test: Toxicity of ceramidase inhibitors over a 24 h assay (viability and αGalCer presentation to DN32.D3 cells); type: cell-based
Description: In the absence of a suitable animal model, enzyme inhibitors were used to assess the role of ceramidases in the control of NKT ligands. […] In the T-cell activation assays, DC3.2 cells were differentiated with LPS and treated with inhibitors of α-glycosidases (GLAi and/or GAAi), 1-deoxygalactonojirimycin (0.5 μM) and 1-deoxygluconojirimycin (2.0 μM), respectively, or ceramidase inhibitors (NAAA/ASAHLi(27) (20 μM) or AC/ASAH1i, carmofur (1.0 μM) for 24 h and used to stimulate DN32.D3 NKT cells. The results are shown in FIGS. 14A-E. A control (open circles) was included for comparison with each inhibitor (filled circles).

L317 antibody = test: Surface plasmon resonance: binding of L317 antibody to CD1d-lipid complexes; details: SPR
Description: as §1
as §1, with “(available from GE” for “(GE”, “Flow cell one was used as a negative control and used for subtraction from experimental flow cells. Global analysis of subtracted sensorgrams was carried out using the T200 analysis software.” left out

ASAHL (NAAA) = molecular target: T1, ASAHL (NAAA) (Homo sapiens, UniProt Q02083); test: Specific activity of the ASAHL inhibitor; type: biochemical; set-up: unit not given here
T1 sequence (Q02083 29-359): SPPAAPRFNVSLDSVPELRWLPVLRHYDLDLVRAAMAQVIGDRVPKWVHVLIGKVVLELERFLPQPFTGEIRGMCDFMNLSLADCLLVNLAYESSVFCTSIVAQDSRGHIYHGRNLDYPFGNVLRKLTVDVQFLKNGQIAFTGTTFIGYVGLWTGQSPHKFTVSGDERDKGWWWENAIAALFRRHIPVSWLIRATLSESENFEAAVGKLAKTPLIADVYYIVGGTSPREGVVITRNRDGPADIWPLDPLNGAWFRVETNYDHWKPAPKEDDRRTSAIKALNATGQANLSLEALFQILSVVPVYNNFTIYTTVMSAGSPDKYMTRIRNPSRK

CD1d = molecular target: T2, CD1d (Mus musculus, UniProt P11609); test: In vitro binding of detergent to CD1d; details: in vitro (data not shown)
T2 sequence (P11609 19-297 limits assumed): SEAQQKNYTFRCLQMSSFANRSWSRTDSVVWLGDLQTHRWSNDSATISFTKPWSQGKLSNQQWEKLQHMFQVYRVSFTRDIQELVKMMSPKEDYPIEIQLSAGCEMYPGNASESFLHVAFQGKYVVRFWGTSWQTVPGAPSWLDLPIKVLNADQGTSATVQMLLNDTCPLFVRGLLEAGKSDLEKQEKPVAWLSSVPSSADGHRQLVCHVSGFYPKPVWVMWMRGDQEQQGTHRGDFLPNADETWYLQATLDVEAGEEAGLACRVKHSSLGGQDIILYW
T2 sequence (P01887 21-119 partner): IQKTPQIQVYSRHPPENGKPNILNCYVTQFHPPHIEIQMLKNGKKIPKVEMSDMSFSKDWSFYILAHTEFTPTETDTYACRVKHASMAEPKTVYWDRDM

[1] = carmofur 1.0 μM, NAAA/ASAHLi 20 μM

Molecule: OC[C@H]1NC[C@H](O)[C@@H](O)[C@@H]1O [1-deoxygluconojirimycin]
- effect on stimulation of NKT cells, FIG. 10 legend (DN32.D3 NKT cells): induced or increased stimulation of NKT cells
- effect on stimulation of NKT cells in the context of TNFα stimulation (DN32.D3 NKT cells): did not increase stimulation of NKT cells
- effect on stimulation of NKT cells by DCs (DN32.D3 NKT cells): did not result in significant increase in stimulatory activity

Molecule: CCCCCCCCCCCCCCCCCCCCCCCCCC(=O)N[C@@H](COC1OC(CO)C(O)C(O)C1O)C(O)[C@H](O)CCCCCCCCCCCCCC (stereo partly drawn) [αGalCer]
- Kdiss (L363 binding to CD1d-lipid complex) (L363 antibody): 0.0083 s⁻¹
- Kd (L363 antibody): 96.7 nM

Molecule: CCCCCCCCCCCCCC(=O)N[C@H](CO)[C@H](O)c1ccc([N+](=O)[O-])cc1 [NMAPPD, N-[(1R,2R)-2-hydroxy-1-(hydroxymethyl)-2-(4-nitrophenyl)ethyl]-tetradecanamide]
- toxicity over a 24 h assay (DC3.2 cells): too much toxicity

Molecule: isoglobotrihexosylceramide [iGb3]
- binding of L317 to lipid loaded into CD1d (L317 antibody): no ability to bind
- binding of L363 to lipid loaded into CD1d (L363 antibody): no ability to bind

Molecule: αGal(α1-2)Galactosylceramide
- binding of L317 to lipid loaded into CD1d (L317 antibody): no ability to bind
- binding of L363 to lipid loaded into CD1d (L363 antibody): no ability to bind

Molecule: CCCCCCCC/C=C\CCCCCCCCCCCCCC(=O)N[C@@H](COC1OC(CO)C(O)C(O)C1O)C(O)/C=C/CCCCCCCCCCCCC (stereo partly drawn) [βGluCer24:1]
- stimulatory activity towards DN32.D3 after digestion with recombinant GBA (DN32.D3 NKT cells; GBA 2 h at 37° C., WT splenocytes 10^5 cells/well): Stimulatory activity was not changed
- Affinity Kd (Kdiss/Kass) (L363 antibody): N.M.

Molecule: OC[C@H]1NC[C@H](O)[C@@H](O)[C@H]1O [1-deoxygalactonojirimycin]
- effect on stimulation of NKT cells, FIG. 10 legend (DN32.D3 NKT cells): induced or increased stimulation of NKT cells
- effect on stimulation of NKT cells in the context of TNFα stimulation (DN32.D3 NKT cells): did not increase stimulation of NKT cells
- effect on stimulation of NKT cells by DCs (DN32.D3 NKT cells): induced or increased a robust stimulation of NKT cells

Molecule: O=C(CCc1ccc(-c2ccccc2)cc1)N1CCCC1 [NAAA inhibitor, 1-(2-Biphenyl-4-yl)ethyl-carbonyl pyrrolidine]
- specific activity of the inhibitor of ASAHL (ASAHL (NAAA)): 10-200
- effect on stimulatory activity of thymocytes towards DN32.D3 (DN32.D3 NKT cells; thymocytes as APC, NAAA/ASAHLi 20 μM): no effect
- effect of ceramidase inhibition on stimulatory activity towards NKT cells (DN32.D3 NKT cells; [1]): very limited but reproducible increase in stimulatory activity

Molecule: CCCCCCCCCCCC1(C)OCC(COCCCS(=O)(=O)[O-])O1.[Na+] (stereo not drawn) [Sodium 3-[(2-methyl-2-undecyl-1,3-dioxolan-4-yl)methoxy]-1-propanesulfonate]
- binding to CD1d (CD1d): not bind CD1d to any measurable extent

Molecule: CCCCCCCCCCCCCC[C@@H](O)C(O)[C@@H](N)COC1OC(CO)C(O)C(O)C1O (stereo partly drawn)
- Affinity Kd (Kdiss/Kass) (L363 antibody): N.M.

Molecule: CCCCCCCC/C=C\CCCCCCCCCCCCCC(=O)N[C@@H](COC1OC(CO)C(O)C(O)C1O)C(O)/C=C/CCCCCCCCCCCCC (stereo partly drawn) [αGalCer24:1]
- Kdiss (L363 binding to CD1d-lipid complex) (L363 antibody): 0.05 s⁻¹
- Kd (L363 antibody): 350 nM

Molecule: CCCCCCNC(=O)n1cc(F)c(=O)[nH]c1=O [carmofur, 1-Hexylcarbamoyl-5-fluorouracil]
- increase of stimulatory activity of thymocytes towards DN32.D3 (DN32.D3 NKT cells; thymocytes as APC, carmofur 1.0 μM): 2.5 fold
- effect of ceramidase inhibition on stimulatory activity towards NKT cells (DN32.D3 NKT cells; [1]): significant increase in stimulatory activity
- toxicity over a 24 h assay (DC3.2 cells; viability and αGalCer presentation to DN32.D3 cells after treatment): very limited cell toxicity

Molecule: CCCCCCCCCCCCC/C=C/C(O)[C@H](COC1OC(CO)C(O)C(O)C1O)NC(=O)CCCCCCCCCCCCCCCCCCCCCCCCC (stereo partly drawn) [αGluCer]
- Kdiss (L363 binding to CD1d-lipid complex) (L363 antibody): 0.4711 s⁻¹
- Kd (L363 antibody): 5020 nM
